# Results reported in US20260232644A1, “Compositions Comprising an Inhibitor of Galectin-3” (University of Liverpool, priority 2023, published 2026).
# Where a name gives a salt, the structure may show the parent alone.
# Biological target: T1, Galectin-4 (Homo sapiens, UniProt P56470)
# T1 construct: made in house; host or cells: E. coli
# T1 sequence (P56470 1-323): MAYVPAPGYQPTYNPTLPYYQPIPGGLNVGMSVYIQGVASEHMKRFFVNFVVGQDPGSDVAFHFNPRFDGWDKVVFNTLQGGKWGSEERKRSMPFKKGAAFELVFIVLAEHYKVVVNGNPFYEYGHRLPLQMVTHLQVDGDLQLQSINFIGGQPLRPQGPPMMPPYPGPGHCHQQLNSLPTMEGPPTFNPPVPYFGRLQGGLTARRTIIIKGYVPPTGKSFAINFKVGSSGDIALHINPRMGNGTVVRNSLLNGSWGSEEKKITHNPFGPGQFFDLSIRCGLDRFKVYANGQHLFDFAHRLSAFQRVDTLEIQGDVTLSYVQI
# Test: Galectin-4 binding to asialofetuin ELISA
# Conditions: Gal-4 5 μg/ml, ASF 20 μg/ml
# Experimental: Effect of the inhibitors on galectin binding to its ligand asialo fetuin (ASF) was measured by galectin ELISA. Nanty-six well plates were coated overnight with 20 μg/ml ASF in coating buffer (15 mM Na2CO3 17 mM NaHCO3 pH 9.6.). The wells were washed twice with PBS and incubated with blocking buffer (1% BSA in PBS) for 1 hr. The supernatants were removed and replaced with 5 μg/ml recombinant human galectin without or with different concentrations of the compound inhibitors or lactose in blocking buffer for 1 hr at room temperature. The wells were washed and incubated with 1 μg/ml anti-galectin antibody for 2 hr. Following addition of HRP-conjugated secondary antibody for 1 hr, FAST OPD development solution was added for 15-20 minutes. The reaction was terminated by addition of 4M sulphuric acid. The plates were read at 492 nm (reference wavelength 595 nm) by a microplate reader.
smiles,measurement,value
"NC1CCN(c2nc3c(cc2F)c(=O)c(C(=O)O)cn3-c2ccc(F)cc2F)C1 (stereo not shown) [Formula X, Tosufloxacin tosylate]",Effect on Galectin-4 binding to asialofetuin,does not affect binding
